Paper PMC3630091, “A Mechanistic Paradigm for Broad-Spectrum Antivirals that Target Virus-Cell Fusion” (PLoS Pathogens, 2013)
Read-outs that look alike come from different tables or passages of the source.

What was measured:
[1] = test system: HIV; test: microbe, parasite or virus in culture; type: cell-based; conditions: Human immunodeficiency virus 1, 10 min
[2] = test system: NDV; test: microbe, parasite or virus in culture; type: cell-based, Newcastle disease virus; conditions: avian paramyxovirus 1, 10 min
[3] = test system: EBOV; test: microbe, parasite or virus in culture; type: cell-based, Ebola Zaire; conditions: Zaire ebolavirus, 10 min, read-out: IC50 EBOV
[4] = test system: H1N1; test: microbe, parasite or virus in culture; type: cell-based, Influenza A A/PR/8/34 (H1N1); conditions: read-out: IC50 H1N1
[5] = test system: NiV; test: microbe, parasite or virus in culture; type: cell-based, Nipah virus Malaysia
[6] = test system: HeV; test: microbe, parasite or virus in culture; type: cell-based, Hendra virus; conditions: Henipavirus hendraense, 10 min, read-out: IC50 HeV
[7] = test system: RVFV; test: microbe, parasite or virus in culture; type: cell-based, Rift Valley fever MP-12 (vaccine strain); conditions: Rift Valley fever virus, 10 min, read-out: IC50 RVFV
[8] = test system: SFV; test: microbe, parasite or virus in culture; type: cell-based; conditions: Semliki Forest virus, BHK, 10 min, read-out: IC50 SFV
[9] = test system: HSV; test: microbe, parasite or virus in culture; type: cell-based, Herpes simplex virus-1; conditions: Human alphaherpesvirus 1, 10 min
[10] = test system: CMV; test: microbe, parasite or virus in culture; type: cell-based, Cytomegalovirus (strain T3259); conditions: Human betaherpesvirus 5, 10 min, read-out: IC50 CMV, 10 min white light exposure of treated virus
[11] = test system: VSV; test: microbe, parasite or virus in culture; type: cell-based; conditions: Vesicular stomatitis virus, 10 min, read-out: IC50 VSV
[12] = test system: RABV; test: microbe, parasite or virus in culture; type: cell-based; conditions: Lyssavirus rabies, 10 min, read-out: IC50 RABV
[13] = Acrylamide quenching in POPC vesicles; type: physicochemical; conditions: >50-fold molar excess of lipid; 3 mM POPC vesicles
[14] = Absorbance spectra / UV-visible spectra integration; type: physicochemical; conditions: for Abs Max (λmax): 100 µM in DMSO; for AUC (400-750 nm): integrated absorption divided by concentration, normalized relative to LJ001 (LJ001 = 100); for total integrated absorption (AUC), times that of LJ001: λ = 400 to 750 nm
[15] = Singlet oxygen quantum yield measurements; type: physicochemical; conditions: for 1O2 QY 355 nm: in CD2Cl2, excitation 355 nm; for 1O2 QY 355 nm / 1O2 QY 532 nm: error is one standard deviation; for 1O2 QY 532 nm: in CD2Cl2, excitation 532 nm
[16] = Singlet oxygen quenching measurements; type: physicochemical; conditions: 355 nm with C60 as external sensitizer; error is one standard deviation
[17] = test system: influenza virus A (A/PR/8/34 H1N1); conditions: 5 µM, light 1 h
[18] = Clinical observations after single dose in PK study; type: in vivo, female Balb/c mice
Procedure: Dose administration. […] These mice were replaced and the dose level was reduced to 5 mg/kg. […] Hypoactivity was the only clinical observation noted in some of the mice treated with the 3 test articles at 10 and 100 mg/kg po. […] These animals were replaced and administered with the lower ip dose level of 1.25 mg/kg and underwent blood collections. Mice received single ip doses of 1.25 mg/kg (JL109 and JL118) or 5 mg/kg (JL122) and po doses of 10 mg/kg (JL109, JL118, JL122), 50 mg/kg (JL109, JL118), or 100 mg/kg (JL109, JL118, JL122).

[19] = test system: VSV-ΔG-rluc pseudotyped with NiV envelope glycoproteins, F and G
[20] = test system: enveloped viruses; parameters: method as in PMID 20133606; conditions: non-cytotoxic concentrations; read-out: IC50, entry of numerous enveloped viruses; cited from earlier work
[21] = in vitro; conditions: human
[22] = Pharmacokinetics in mice; conditions: for improvements in relevant pharmacokinetic (PK) parameters compared to LJ001: half-life, AUC, bioavailability, clearance
[23] = Membrane partition into POPC LUV (fluorescence); conditions: for IL / Iw: POPC LUV, fluorescence intensity ratio from curve fitting
[24] = Membrane partition into HIV membrane-like mixture LUV (fluorescence); conditions: for IL / Iw: HIV-like mixture LUV, fluorescence intensity ratio from curve fitting
[25] = reference sensitizer value; cited from earlier work
[26] = test system: HIV-1JR-CSF; type: cell-based
[27] = test system: RVFV ZH501; type: in vivo, Balb/c mice; conditions: for time-to-death / survival compared to untreated controls: 20 pfu RVFV ZH501 IP, IP once a day for 7 days from 1 h post-challenge, JL118 1.25 mg/kg, JL122 and JL103 10 mg/kg
[28] = test system: enveloped viruses; type: cell-based
[29] = test system: HIV-1JRCSF
[30] = read-out: IC50 ± SD (nM) (N=x) HIV
[31] = read-out: IC50 ± SD (nM) (N=x) NDV
[32] = read-out: IC50 ± SD (nM) (N=x) HSV
[33] = female, Balb/c, mouse, in vivo, po, 10 mg/kg
[34] = female, Balb/c, mouse, in vivo, po, 100 mg/kg

In the case of `C=CCN1C(=O)/C(=C/c2ccc(-c3ccccc3)o2)SC1=S` [LJ001, (Z)-3-allyl-5-((5-phenylfuran-2-yl)methylene)-2-thioxothiazolidin-4-one], the IC50 ([1]; read-out: IC50 HIV) is reported as 133 nM, the IC50 [1, 30] is reported as 182 ± 244 nM and the IC50 ([2]; read-out: IC50 NDV) is reported as 95 nM. For the same molecule, the IC50 [2, 31] was 181 ± 105 nM, the IC50 [3] was 900 nM and the IC50 ([4]; Influenza A virus, H1N1, 10 min) was 25.7 nM. The IC50 [4] was 26 nM, the IC50 ([5]; Henipavirus nipahense, 10 min, read-out: IC50 NiV, 10 min white light exposure of treated virus) was 47.5 nM and the IC50 ([5]; read-out: IC50 NiV, 10 min white light exposure of treated virus) was 48 nM. It also gave an IC50 [6] of 18 nM, an IC50 [7] of 20 nM and an IC50 [8] of 537 nM. The IC50 ([9]; read-out: IC50 HSV) was 20 nM, the IC50 [9, 32] was 35.3 ± 48.3 nM and the IC50 [10] was 147 nM. The IC50 [11] was 298 nM, the IC50 [12] was 5290 nM and the “fraction protected from the water-soluble quencher (acrylamide)” value [13] was “over 85%”. For the same molecule, the “Abs Max (λmax)” value [14] was 455 nm, the “AUC (400-750 nm)” value [14] was 100 and the “1O2 QY 355 nm” value [15] was 0.20 ± 0.02. For the same molecule, the “1O2 QY 532 nm” value [15] was 0, the “kT × 10-7” value [16] was 0.189 ± 0.010 M-1s-1 and the “increase in the number of oxidized forms of unsaturated phospholipids compared to LJ025-treated samples” value [17] was “up to 300 fold”. For the same molecule, the clinical observations ([18]; single dose 5 mg/kg ip) was “appeared normal”, the clinical observations ([18]; single dose 10 mg/kg ip) was 2 were sacrificed in moribund condition and 1 was found dead and the “t1/2 (inhibition half-life, time-of-addition)” value [19] was 1.12 h. For the same molecule, the IC50 [20] was ≤ 500 nM, the CC50 [21] was 11900 nM and the clearance ([22]; female, Balb/c, mouse, in vivo) was ~700 mL/min/kg. The half-life ([22]; female, Balb/c, mouse, in vivo) was 0.2 h, the “time post-dose up to which plasma levels were detectable” value ([22]; ip 5 mg/kg) was ≤ 0.5 h and the “time post-dose up to which plasma levels were detectable” value ([22]; iv 10 mg/kg) was “up to 1 hr”. For the same molecule, the “IL / Iw” value [23] was 2.29, the Kp at 10 min, 50 µM [24] was 5190 and the “IL / Iw” value [24] was 2.41.
For `O=C1OC2(c3cc(I)c(O)c(I)c3Oc3c2cc(I)c(O)c3I)c2c(Cl)c(Cl)c(Cl)c(Cl)c21` [RB, Rose Bengal], the “1O2 QY of reference compound at 532 nm” value [25] is listed as 0.79.
In the case of `CCN1C(=S)O/C(=C\c2ccc(-c3ccc(N(C)C)cc3)o2)C1=S` [JL118, (Z)-5-((5-(4-(dimethylamino)phenyl)furan-2-yl)methylene)-3-ethyloxazolidine-2,4-dithione], the IC50 [1, 30] is reported as 11.7 ± 5.5 nM, the IC50 [2, 31] is reported as 2.1 ± 1.4 nM and the IC50 [9, 32] is reported as 10.1 ± 8.6 nM. The “Abs Max (λmax)” value [14] was 610 nm, the “AUC (400-750 nm)” value [14] was 200 and the “total integrated absorption (AUC), times that of LJ001” value [14] was 2 times. For the same molecule, the “1O2 QY 355 nm” value [15] was 0.14 ± 0.01, the “1O2 QY 532 nm” value [15] was 0.15 ± 0.02 and the “kT × 10-7” value [16] was 4.600 ± 0.300 M-1s-1. For the same molecule, the “antiviral potency at physiological hematocrits” value [26] was “maintained their antiviral potency”, the “time-to-death / survival compared to untreated controls” value [27] was “moderate but significant delay in time-to-death” and the clinical observations ([18]; single dose 2.5 mg/kg ip, about 15 min post administration) was “deaths occurred in the initial 3 animals”. The “improved in vitro potency compared to LJ001” value [28] was 10-100 fold, the CC50 [21] was 37000 nM and the MRT last ([22]; female, Balb/c, mouse, in vivo) was 5.3 to 11.4 h. It also gave a Tmax ([22]; female, Balb/c, mouse, in vivo) of 0.25 to 1 h, an AUC(0-t) [22, 33] of 1350 ng·h/mL and an AUC(0-t) ([22]; female, Balb/c, mouse, in vivo, po, 50 mg/kg) of 841 ng·h/mL. The AUC(0-t) [22, 34] was 1160 ng·h/mL, the “improvements in relevant pharmacokinetic (PK) parameters compared to LJ001” value [22] was > 10 fold and the Kp at 10 min, 50 µM [23] was 2700. The “IL / Iw” value [23] was 233, the Kp at 10 min, 50 µM [24] was 2010 and the “IL / Iw” value [24] was 488.
`CCN1C(=S)O/C(=C\c2ccc(-c3c(OC)cc(OC)cc3OC)o2)C1=S` [JL122, (Z)-3-ethyl-5-((5-(2,4,6-trimethoxyphenyl)furan-2-yl)methylene)oxazolidine-2,4-dithione] showed an IC50 [1, 30] of 64 ± 41.5 nM, an IC50 [2, 31] of 0.9 ± 0.8 nM and an IC50 [9, 32] of 2.4 ± 1.4 nM. The “Abs Max (λmax)” value [14] was 545 nm, the “AUC (400-750 nm)” value [14] was 153 and the “total integrated absorption (AUC), times that of LJ001” value [14] was 1.53 times. For the same molecule, the “QY at 355 nm, times higher than LJ001” value ([15]; 355 nm) was “about 2 times”, the “1O2 QY 355 nm” value [15] was 0.43 ± 0.04 and the “1O2 QY 532 nm” value [15] was 0.23 ± 0.02. For the same molecule, the “kT × 10-7” value [16] was 1.970 ± 0.050 M-1s-1, the “antiviral potency at physiological hematocrits” value [26] was “maintained their antiviral potency” and the “time-to-death / survival compared to untreated controls” value [27] was “moderate but significant delay in time-to-death”. The Median survival ([27]; 50 pfu RVFV ZH501 IP, 10 mg/kg IP at 1, 12, 24 and 48 h post-challenge, n = 5) was 6 days, the “improved in vitro potency compared to LJ001” value [28] was 10-100 fold and the CC50 [21] was 10300 nM. For the same molecule, the MRT last ([22]; female, Balb/c, mouse, in vivo) was 4.7 to 7 h, the Tmax ([22]; female, Balb/c, mouse, in vivo) was 0.25 to 1 h and the AUC(0-t) ([22]; female, Balb/c, mouse, in vivo, ip, 5 mg/kg) was 569 ng·h/mL. The Cmax ([22]; female, Balb/c, mouse, in vivo, ip, 5 mg/kg, ip 5 mg/kg) was 122 ng/mL, the AUC(0-t) ([22]; female, Balb/c, mouse, in vivo, ip, 10 mg/kg) was 924 ng·h/mL and the Cmax ([22]; female, Balb/c, mouse, in vivo, ip, 10 mg/kg, ip 10 mg/kg) was 132 ng/mL. It also gave an AUC(0-t) [22, 33] of 232 ng·h/mL, a Cmax ([22]; female, Balb/c, mouse, in vivo, po, 50 mg/kg, po 50 mg/kg) of 122 ng/mL and an AUC(0-t) [22, 34] of 1270 ng·h/mL. The “improvements in relevant pharmacokinetic (PK) parameters compared to LJ001” value [22] was > 10 fold, the Kp at 10 min, 50 µM [23] was 1130 and the “IL / Iw” value [23] was 143.8. The Kp at 10 min, 50 µM [24] was 267 and the “IL / Iw” value [24] was 613.7.
With `Cc1cn([C@H]2C[C@H](N=[N+]=[N-])[C@@H](CO)O2)c(=O)[nH]c1=O` [AZT] the “t1/2 (inhibition half-life, time-of-addition)” value [29] was > 8.33 h.
